Experimental data as given in paper PMC10810714, “Antiretroviral Drug Exposure and Response in Obese and Morbidly Obese People With Human Immunodeficiency Virus (HIV): A Study Combining Modelling and Swiss HIV Cohort Data” (Clinical Infectious Diseases: An Official Publication of …, 2023).

Columns and labels:
[1] = Observed pharmacokinetics of antiretrovirals in nonobese and obese individuals (SHCS therapeutic drug monitoring data and literature studies, noncompartmental analysis)
Source text: (§1) We took several steps to analyse the impact of obesity on the ARVs exposure and response. First, we implemented our in-house PBPK model with our recently published virtual White obese population to simulate the pharmacokinetics of ARVs in nonobese and obese individuals. Next, we verified the simulations against the TDM data collected during the follow-up visits of the SHCS (multiple drug levels per individual were allowed [more information on the SHCS in the homonymous section in the Supplementary Material]). We then applied the verified model to extrapolate the pharmacokinetics across different obesity classes. Finally, the clinical relevance of obesity-related changes on drug response was evaluated by analyzing HIV viral load and the corresponding TDM values in obese and nonobese individuals in the SHCS.
(§2) All ARV drug models, except for doravirine (Supplementary Table 1), were previously developed and verified to predict the pharmacokinetics in healthy and elderly PWH [6, 12]. […] The TDM data were excluded if the participant’s age was younger than 20 or older than 50 years to avoid the age-related confounding effect on the pharmacokinetics, if a nonstandard ARV dosage was used, and if concurrent medications with inhibitory or inducing effects were used. The pharmacokinetic parameters including peak plasma concentration (Cmax), area under the curve to time t (AUCt), and trough concentration (Cτ) were derived from the TDM data using noncompartmental analysis.
(§3) A literature search was also performed to identify pharmacokinetic studies with ARVs conducted in obese and nonobese individuals. Data on the study design, characteristics of the participants, and pharmacokinetic results were collected. […] Available concentration-time profiles were digitalized using GetData Graph Digitizer V.2.26. The virtual trials were conducted by matching the participants’ demographics (eg, age, proportion of females, and BMI) and the ARV dosing regimen (Supplementary Table 2). The models were considered verified if the simulations were within 2-fold of observed data.
The Swiss HIV Cohort Study (SHCS) is an ongoing, nationwide, multicenter, clinic-based prospective cohort study in Switzerland with continuous enrollment and follow-up (twice a year) of people with HIV (PWH). Socio-demographic, clinical and laboratory data are recorded in detail. […] The collection of therapeutic drug monitoring (TDM) data in the SHCS database was initiated in 1998. All available TDM data for each evaluated antiretroviral drug were extracted from the SHCS database representing 6210 and 575 data points for the verification of the simulations in non-obese and obese individuals, respectively.

[2] = PBPK model virtual trials matched to the observed studies (model verification, nonobese vs obese); set-up: species or system human
Source text: as §1, §2, §3

HIV viral load = assay: Drug response in obese versus nonobese participants in the SHCS (concentration below efficacy threshold and viral load >50 copies/mL)
Procedure: The viral load was analyzed in conjunction with the TDM data to evaluate whether a decrease in ARV exposure in obese PWH is associated with a viral load of more than 50 copies/mL (the viral load measured on the date of the TDM assessment was considered for this evaluation).

CYP3A4 = assay: Doravirine PBPK model parameter: CYP3A4 intrinsic clearance; assay type: in vitro ADME; conditions: Retrograde calculation
Source text: Supplementary Table 1. Doravirine PBPK model parameters.

[3] = nonobese, standard oral dose at steady state; GM (mean for etravirine, emtricitabine, tenofovir); literature studies only, ref Supplementary Table 2 [9-16, 21-24]; cited from earlier work
[4] = set-up: method as in earlier work; conditions: PBPK model parameter, supplement reference list; cited from earlier work
[5] = set-up: method as in earlier work; conditions: PBPK model parameter, supplement reference list; cited from earlier work; remark: listed apart in the source
[6] = clinical study; cited from earlier work

SMILES: Cn1c(Cn2ccc(C(F)(F)F)c(Oc3cc(Cl)cc(C#N)c3)c2=O)n[nH]c1=O [Doravirine, doravirine]
- Cτ, observed, obese individuals ([1]; obese (BMI >=30, range per drug), standard oral dose at steady state, GM (mean for etravirine), SHCS TDM data with or without literature data): 513 ng/mL
- Cτ, Ratio Obese/Nonobese, Observed ([1]; observed data): 1.27
- Cτ, Ratio (Predicted Ratio Obese/Nonobese)/(Observed Ratio Obese/Nonobese) [2]: 0.79
- AUCt, Ratio Predicted/Observed, Nonobese ([2]; nonobese individuals): 1.00
- Cmax, Ratio Predicted/Observed, Nonobese ([2]; nonobese individuals): 1.10
- Cτ, Ratio Predicted/Observed, Nonobese ([2]; nonobese individuals): 0.86
- t1/2, Ratio Predicted/Observed, Nonobese ([2]; nonobese individuals): 1.03
- Cτ, Ratio Predicted/Observed, Obese ([2]; obese individuals): 0.68
- Predictions within x-fold of observed clinical data ([2]; pharmacokinetic parameters in obese and nonobese individuals, 1.25-fold 'for the most part'): ≤ 1.25 fold
- % PWH with concentration below efficacy threshold (HIV viral load; BMI 18.5–30 kg/m^2): 0%
- % PWH with virological failure amongst those with concentration below efficacy threshold (HIV viral load; BMI 18.5–30 kg/m^2, viral load above 50 copies/mL): 0%
- % PWH with concentration below efficacy threshold (HIV viral load; BMI >30 kg/m^2): 25%
- % PWH with virological failure amongst those with concentration below efficacy threshold (HIV viral load; BMI >30 kg/m^2, viral load above 50 copies/mL): 0%
- CYP3A4 CLint (intrinsic clearance) (CYP3A4): 0.032 µl/min/pmol enzyme
- AUCt, observed, nonobese individuals [3]: 17 498 ng*h/mL
- Cmax, observed, nonobese individuals [3]: 1226 ng/mL
- Cτ, observed, nonobese individuals [3]: 404 ng/mL
- t1/2, observed, nonobese individuals [3]: 13.5 h
- drug type [4]: Monoprotic base
- log P (octanol-water partition coefficient) [4]: 3.0
- pKa1 [4]: 9.5
- Apparent permeability [5]: 25 10^-6 cm/sec
- BP (blood-plasma-ratio) [5]: 1.0
- CLrenal (renal clearance) [5]: 0.566 L/h
- fup (fraction unbound in plasma) [5]: 0.24
- Increase in Cτ in obese compared with nonobese PWH [6]: 22%
